Data from ChEMBL document CHEMBL3734700, “Design, synthesis and biological activity of 4-[(benzimidazol-1-yl)methyl]biphenyl-2-sulphonamides as dual angiotensin II and endothelin A receptor antagonists” (Medchemcomm, 2015).
Active and inactive are the calls of the source. The calls are words filed in the database; no cut-off is given here.

Columns and labels:
[1] = target: T1, Type-1 angiotensin II receptor (Homo sapiens, UniProt P30556); assay: Displacement of 125I-labeled Sar1-Ile8-angiotensin II from human AT1 receptor incubated for 2 hrs by gamma counting analysis
T1 sequence (P30556 whole entry): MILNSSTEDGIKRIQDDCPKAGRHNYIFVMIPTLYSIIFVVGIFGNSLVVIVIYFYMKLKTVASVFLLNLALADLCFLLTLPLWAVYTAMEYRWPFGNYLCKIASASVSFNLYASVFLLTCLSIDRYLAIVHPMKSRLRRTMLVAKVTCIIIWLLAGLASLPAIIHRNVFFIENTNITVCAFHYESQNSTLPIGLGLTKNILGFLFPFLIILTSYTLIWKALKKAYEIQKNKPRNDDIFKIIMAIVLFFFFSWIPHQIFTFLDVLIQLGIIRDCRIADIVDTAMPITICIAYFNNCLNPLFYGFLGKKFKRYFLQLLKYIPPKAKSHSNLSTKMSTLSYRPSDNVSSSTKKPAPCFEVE

Endothelin-1 receptor = target: T2, Endothelin-1 receptor (Homo sapiens, UniProt P25101); assay: Displacement of 125I-labeled endothelin 1 from human ETA receptor expressed in CHO-K1 cells incubated for 4 hrs by gamma counting analysis; type: cell-based
T2 sequence (P25101 whole entry): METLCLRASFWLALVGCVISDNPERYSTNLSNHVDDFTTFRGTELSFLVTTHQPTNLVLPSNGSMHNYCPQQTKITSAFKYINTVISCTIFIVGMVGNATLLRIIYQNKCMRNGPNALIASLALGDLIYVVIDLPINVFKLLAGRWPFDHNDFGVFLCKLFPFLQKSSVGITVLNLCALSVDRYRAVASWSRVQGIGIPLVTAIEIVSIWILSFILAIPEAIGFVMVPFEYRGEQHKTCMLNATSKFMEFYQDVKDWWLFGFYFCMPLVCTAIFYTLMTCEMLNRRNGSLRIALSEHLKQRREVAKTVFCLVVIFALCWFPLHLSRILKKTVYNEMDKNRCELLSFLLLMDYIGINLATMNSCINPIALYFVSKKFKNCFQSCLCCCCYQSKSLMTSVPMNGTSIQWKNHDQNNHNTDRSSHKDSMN

Rattus norvegicus = assay: Antihypertensive activity in spontaneously hypertensive rat assessed as reduction in blood pressure at 20 mg/kg, po by tail plethysmographic analysis; type: functional, organism-based

| Compound | IC50 [1] [µM] | IC50 (Endothelin-1 receptor) [µM] | Activity (Rattus norvegicus) |
| --- | --- | --- | --- |
| CCCNC(=O)c1cc(C)c2nc(CCC)n(Cc3ccc(-c4ccccc4S(=O)(=O)Nc4onc(C)c4C)cc3)c2c1 | 0.373 | 35 | – |
| CCCc1nc2c(C)cc(C(=O)NCCc3ccc(OC)cc3)cc2n1Cc1ccc(-c2ccccc2S(=O)(=O)Nc2onc(C)c2C)cc1 | 0.076 | 200 | – |
| CCCc1nc2c(C)cc(C(=O)NCCc3ccccc3F)cc2n1Cc1ccc(-c2ccccc2S(=O)(=O)Nc2onc(C)c2C)cc1 | 0.16 | 0.262 | – |
| CCCCNC(=O)c1cc(C)c2nc(CCC)n(Cc3ccc(-c4ccccc4S(=O)(=O)Nc4onc(C)c4C)cc3)c2c1 | 0.465 | 0.314 | – |
| CCCc1cc(Cn2c(CC)nc3c(C)cc(C)nc32)ccc1OC(C(=O)NS(=O)(=O)c1ccc(C(C)C)cc1)c1ccc2c(c1)OCO2 (configuration not stated) | 0.013 | 0.024 | – |
| CCCc1nc2c(C)cc(C(=O)NCCN3CCCCC3)cc2n1Cc1ccc(-c2ccccc2S(=O)(=O)Nc2onc(C)c2C)cc1 | 0.094 | 5.8 | – |
| CCCc1nc2c(C)cc(C(=O)NCCc3ccc(OC)c(OC)c3)cc2n1Cc1ccc(-c2ccccc2S(=O)(=O)Nc2onc(C)c2C)cc1 | 0.092 | 55 | – |
| CCCc1nc2c(C)cc(C(=O)NCCc3ccc(F)cc3)cc2n1Cc1ccc(-c2ccccc2S(=O)(=O)Nc2onc(C)c2C)cc1 | 0.152 | 56 | – |
| CCCc1nc2c(C)cc(C(=O)NCc3ccccc3)cc2n1Cc1ccc(-c2ccccc2S(=O)(=O)Nc2onc(C)c2C)cc1 | 0.028 | 0.01 | Active |
| CCCCC1=NC2(CCCC2)C(=O)N1Cc1ccc(-c2ccccc2-c2nnn[nH]2)cc1 | – | – | Active |
| CCCc1nc2c(C)cc(C(=O)NCc3ccccc3OC)cc2n1Cc1ccc(-c2ccccc2S(=O)(=O)Nc2onc(C)c2C)cc1 | 0.217 | 0.31 | – |
| CCCc1nc2c(C)cc(C(=O)NCCN3CCOCC3)cc2n1Cc1ccc(-c2ccccc2S(=O)(=O)Nc2onc(C)c2C)cc1 | 0.031 | 1.4 | – |
| CCCc1nc2c(C)cc(C(=O)NCCN3CCN(C)CC3)cc2n1Cc1ccc(-c2ccccc2S(=O)(=O)Nc2onc(C)c2C)cc1 | 0.047 | 1.8 | – |
| CCCc1nc2c(C)cc(C(=O)NC(C)C)cc2n1Cc1ccc(-c2ccccc2S(=O)(=O)Nc2onc(C)c2C)cc1 | 0.341 | 0.277 | – |
| CCCc1nc2c(C)cc(C(=O)NCCc3cccc(OC)c3)cc2n1Cc1ccc(-c2ccccc2S(=O)(=O)Nc2onc(C)c2C)cc1 | 0.042 | 24 | – |
| CCCc1nc2c(C)cc(C(=O)NCc3ccc(OC)cc3)cc2n1Cc1ccc(-c2ccccc2S(=O)(=O)Nc2onc(C)c2C)cc1 | 0.081 | 0.388 | – |
| CCCc1nc2c(C)cc(C(=O)NCc3cccc(OC)c3)cc2n1Cc1ccc(-c2ccccc2S(=O)(=O)Nc2onc(C)c2C)cc1 | 0.05 | 0.898 | – |
| CCCc1nc2c(C)cc(C(=O)NCCc3ccccc3)cc2n1Cc1ccc(-c2ccccc2S(=O)(=O)Nc2onc(C)c2C)cc1 | 0.008 | 0.956 | – |
| CCCc1nc2c(C)cc(C(=O)NC(C)(C)C)cc2n1Cc1ccc(-c2ccccc2S(=O)(=O)Nc2onc(C)c2C)cc1 | 0.385 | 140 | – |
| CCCc1nc2c(C)cc(C(=O)Nc3ccccc3)cc2n1Cc1ccc(-c2ccccc2S(=O)(=O)Nc2onc(C)c2C)cc1 | 0.201 | 27 | – |
| CCCc1nc2c(C)cc(C(=O)NCc3ccc(OC)c(OC)c3)cc2n1Cc1ccc(-c2ccccc2S(=O)(=O)Nc2onc(C)c2C)cc1 | 0.056 | 28 | – |
| CCCCc1nn(-c2ccccc2Cl)c(=O)n1Cc1ccc(-c2ccccc2S(=O)(=O)Nc2onc(C)c2C)cc1 | 0.007 | 0.011 | – |
| CCCc1nc2c(C)cc(C(=O)NCCN3CCCC3)cc2n1Cc1ccc(-c2ccccc2S(=O)(=O)Nc2onc(C)c2C)cc1 | 0.095 | 5.5 | – |
| CCCc1nc2c(n1Cc1ccc(-c3ccccc3S(=O)(=O)Nc3onc(C)c3C)c(C#N)c1)C(=O)CCCC2 | 0.016 | 0.015 | – |
| CCCc1nc2c(C)cc(C(=O)Nc3ccccc3OC)cc2n1Cc1ccc(-c2ccccc2S(=O)(=O)Nc2onc(C)c2C)cc1 | 0.419 | 0.137 | – |
| CCCc1nc2c(C)cc(C(=O)NCCc3cc(OC)ccc3OC)cc2n1Cc1ccc(-c2ccccc2S(=O)(=O)Nc2onc(C)c2C)cc1 | 0.037 | 3 | – |
